Source: article PMC6544242, “Development and validation of a multiplex UHPLC-MS/MS method for the determination of the investigational antibiotic against multi-resistant tuberculosis macozinone (PBTZ169) and five active metabolites in human plasma” (PLoS ONE, 2019)
Like-named read-outs stand apart in the source and are kept apart here.

Assays:
[1] = for % from t0: processed extract sample, 24h
[2] = 24 h
[3] = human
[4] = human, 6 h
[5] = system: Mycobacterium tuberculosis; settings: in vitro, Mycobacterium tuberculosis; cited from earlier work
[6] = system: bacteria (general anti-bacterial activity); set-up: method as in PMID 24500695; settings: cited from earlier work
[7] = system: Mycobacterium tuberculosis; set-up: method as in PMID 20086151, PMID 22926573, PMID 25987624, PMID 30126954; settings: preclinical models; cited from earlier work

## O=c1nc(N2CCN(CC3CCCCC3)CC2)sc2c([N+](=O)[O-])cc(C(F)(F)F)cc12 [PBTZ169, macozinone]
[1]; after 24h at RT, medium level
  change in processed samples: -30%
[1]; 4°C, level H (QC 1500 ng/mL)
  % from t0: -15%
[1]; 4°C, level L (QC 2 ng/mL)
  % from t0: 5%
[1]; 4°C, level M (QC 150 ng/mL)
  % from t0: -7%
[1]; RT, level H (QC 1500 ng/mL)
  % from t0: -8%
[1]; RT, level L (QC 2 ng/mL)
  % from t0: -3%
[1]; RT, level M (QC 150 ng/mL)
  % from t0: 2%
[2]
  time stable in citrated human plasma: at least 24 h
[3]; 1 h, 10 ng/mL
  % from t0: 1%
[3]; 1 h, 20 ng/mL
  % from t0: 2%
[3]; 1 h, 50 ng/mL
  % from t0: -1%
[3]; 1 h, 100 ng/mL
  % from t0: 3%
[3]; 1 h, 200 ng/mL
  % from t0: 1%
[3]; 1 h, 500 ng/mL
  % from t0: 0%
[3]; 2 h, 10 ng/mL
  % from t0: 0%
[3]; 2 h, 20 ng/mL
  % from t0: 2%
[3]; 2 h, 50 ng/mL
  % from t0: -3%
[3]; 2 h, 100 ng/mL
  % from t0: -1%
[3]; 2 h, 200 ng/mL
  % from t0: -3%
[3]; 2 h, 500 ng/mL
  % from t0: -4%
[3]; 4 h, 10 ng/mL
  % from t0: -1%
[3]; 4 h, 20 ng/mL
  % from t0: -1%
[3]; 4 h, 50 ng/mL
  % from t0: -7%
[3]; 4 h, 100 ng/mL
  % from t0: 0%
[3]; 4 h, 200 ng/mL
  % from t0: -2%
[3]; 4 h, 500 ng/mL
  % from t0: -3%
[4]; 0.1 ng/mL
  % from freshly processed samples (n=2): 19%
[4]; 0.2 ng/mL
  % from freshly processed samples (n=2): 11%
[4]; 0.5 ng/mL
  % from freshly processed samples (n=2): -12%
[4]; 1 ng/mL
  % from freshly processed samples (n=2): -4%
[4]; 2 ng/mL
  % from freshly prepared samples: 5%
  % from freshly processed samples (n=2): -3%
[4]; 50 ng/mL
  % from freshly processed samples (n=2): 7%
[4]; 150 ng/mL
  % from freshly prepared samples: -3%
[4]; 500 ng/mL
  % from freshly processed samples (n=2): -4%
[4]; 1000 ng/mL
  % from freshly processed samples (n=2): -10%
[4]; 1500 ng/mL
  % from freshly prepared samples: -7%
[4]; 2000 ng/mL
  % from freshly processed samples (n=2): -1%
[5]
  minimum inhibitory concentration (MIC): below 0.0005 μg/mL
[6]
  general anti-bacterial activity: no general anti-bacterial activity
[7]
  effect in combination with clofazimine or bedaquiline: synergistic effect
  effect in combination with isoniazide, moxifloxacin, rifampicin: additive effect
